Test results as given in US9605022B2, “Macrocyclic compounds for inhibition of inhibitors of apoptosis” (Ensemble Therapeutics Corporation, priority 2012, dated 2017).

Columns and labels:
[1] = biological target: XIAP BIR3 (His-BIR3 (241-356, XIAP)) (Homo sapiens (Human), UniProt P98170); assay: XIAP-BIR3/SMAC Homogeneous Time Resolved Fluorescence (HTRF) Assay; type: binding; details: 1 nM N-His-BIR3, 5 nM fluorescein labeled SMAC peptide; read-out: XIAP BIR3 FRET IC50
[2] = biological target: XIAP BIR2-3 (His-BIR2-3 (125-356, C202A/C213G, XIAP)) (Homo sapiens (Human), UniProt P98170, C202A/C213G); assay: XIAP-BIR2-3 Dimeric SMAC Peptide Homogeneous Time Resolved Fluorescence (HTRF) Assay; type: binding; details: 0.5 nM N-His-BIR2-3, 20 nM fluorescein labeled dimeric SMAC peptide; read-out: XIAP BIR2-3 FRET IC50
XIAP BIR2-3 (His-BIR2-3 (125-356, C202A/C213G, XIAP)), sequence (P98170 125-356 C202A/C213G): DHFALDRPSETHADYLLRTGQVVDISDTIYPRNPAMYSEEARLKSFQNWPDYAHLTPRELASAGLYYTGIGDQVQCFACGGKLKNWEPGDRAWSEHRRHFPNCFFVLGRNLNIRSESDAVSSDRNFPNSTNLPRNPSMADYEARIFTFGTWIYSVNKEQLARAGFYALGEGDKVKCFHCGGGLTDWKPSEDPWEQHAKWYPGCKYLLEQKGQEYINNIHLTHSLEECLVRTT

XIAP BIR3 (His-BIR3 (241-356, XIAP)), sequence (P98170 241-356): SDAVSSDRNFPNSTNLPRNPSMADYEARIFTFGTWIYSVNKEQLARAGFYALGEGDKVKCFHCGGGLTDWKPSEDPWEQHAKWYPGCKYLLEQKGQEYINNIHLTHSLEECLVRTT

Compound	IC50 [1] [nM]	IC50 [2] [nM]
CN[C@@H](C)C(=O)N[C@H](C(=O)N1CC[C@@H]2[C@H]1C(=O)N[C@@H](Cc1ccc3ccccc3c1)C(=O)N[C@H](C(=O)O)Cc1ccc(cc1)OCc1cn(nn1)[C@@H]1CCN(C(=O)[C@@H](NC(=O)[C@H](C)NC)C(C)(C)C)[C@@H]1C(=O)N[C@@H](Cc1ccc3ccccc3c1)C(=O)N[C@H](c1nnn[nH]1)Cc1ccc(cc1)OCc1cn2nn1)C(C)(C)C (single isomer, unassigned) [Example 15]	1.9	0.3
CN[C@@H](C)C(=O)N[C@H](C(=O)N1CC[C@@H]2[C@H]1C(=O)N[C@@H](Cc1ccc3ccccc3c1)C(=O)N[C@H](C(=O)O)Cc1ccc(cc1)OCc1cn(nn1)[C@@H]1CCN(C(=O)[C@@H](NC(=O)[C@H](C)NC)C(C)(C)C)[C@@H]1C(=O)N[C@@H](Cc1ccc3ccccc3c1)C(=O)N[C@H](c1nnn[nH]1)Cc1ccc(cc1)OCc1cn2nn1)C(C)(C)C (single isomer, unassigned) [Example 16]	4.4	2.2
CN[C@@H](C)C(=O)N[C@H](C(=O)N1CC[C@@H]2[C@H]1C(=O)N[C@@H](Cc1ccc3ccccc3c1)C(=O)N[C@H](C(=O)O)Cc1ccc(cc1)OCc1cn(nn1)[C@@H]1CCN(C(=O)[C@@H](NC(=O)[C@H](C)NC)C(C)(C)C)[C@@H]1C(=O)N[C@@H](Cc1ccc3ccccc3c1)C(=O)N[C@H](C(=O)O)c1ccc(cc1)OCc1cn2nn1)C(C)(C)C [Example 1]	4.9	1.1
CN[C@@H](C)C(=O)N[C@H](C(=O)N1CC[C@H]2OCc3cn(nn3)CCC[C@H](C(=O)O)NC(=O)[C@H](Cc3ccc4ccccc4c3)NC(=O)[C@@H]3[C@@H](CCN3C(=O)[C@@H](NC(=O)[C@H](C)NC)C(C)(C)C)OCc3cn(nn3)CCC[C@H](C(=O)O)NC(=O)[C@H](Cc3ccc4ccccc4c3)NC(=O)[C@H]21)C(C)(C)C [Example 3]	1.9	0.8
CN[C@@H](C)C(=O)N[C@H](C(=O)N1CC[C@H]2OCc3cn(nn3)[C@H](C(=O)O)CCNC(=O)[C@H](Cc3ccc4ccccc4c3)NC(=O)[C@@H]3[C@@H](CCN3C(=O)[C@@H](NC(=O)[C@H](C)NC)C(C)(C)C)OCc3cn(nn3)[C@H](C(=O)O)CCNC(=O)[C@H](Cc3ccc4ccccc4c3)NC(=O)[C@H]21)C(C)(C)C [Example 4]	57.8	1.6
CN[C@@H](C)C(=O)N[C@H](C(=O)N1CC[C@@H]2[C@H]1[C@@H](Cc1ccc3ccccc3c1)C(=O)N[C@H](C(=O)O)Cc1ccc(cc1)OCc1cn(nn1)[C@@H]1CCN(C(=O)[C@@H](NC(=O)[C@H](C)NC)C(C)(C)C)[C@@H]1C(=O)C[C@@H](Cc1ccc3ccccc3c1)C(=O)N[C@H](C(=O)OC)Cc1ccc(cc1)OCc1cn2nn1)C(C)(C)C [Example 7]	29	6.5
CN[C@@H](C)C(=O)N[C@H](C(=O)N1CC[C@@H]2[C@H]1C(=O)N[C@@H](Cc1ccc3ccccc3c1)C(=O)N[C@H](C(=O)O)Cc1ccc(cc1)OCc1cn(nn1)[C@@H]1CCN(C(=O)[C@@H](NC(=O)[C@H](C)NC)C(C)(C)C)[C@@H]1C(=O)N[C@@H](Cc1ccc3ccccc3c1)C(=O)N[C@H](C(=O)NS(=O)(=O)c1ccccn1)Cc1ccc(cc1)OCc1cn2nn1)C(C)(C)C [Example 10]	63.1	16.9
CN[C@@H](C)C(=O)N[C@H](C(=O)N1CC[C@@H]2[C@H]1C(=O)N[C@@H](Cc1ccc3ccccc3c1)C(=O)N[C@H](C(=O)O)Cc1ccc(cc1)OCc1cn(nn1)[C@@H]1CCN(C(=O)[C@@H](NC(=O)[C@H](C)NC)C(C)(C)C)[C@@H]1C(=O)N[C@@H](Cc1ccc3ccccc3c1)C(=O)N[C@H](C(=O)NS(=O)(=O)C1CC1)Cc1ccc(cc1)OCc1cn2nn1)C(C)(C)C [Example 11]	10.3	1.3
CN[C@@H](C)C(=O)N[C@H](C(=O)N1CC[C@@H]2[C@H]1C(=O)NC(=O)C[C@@H](Cc1ccc3ccccc3c1)C(=O)N[C@H](C(=O)O)Cc1ccc(cc1)OCc1cn(nn1)[C@@H]1CCN(C(=O)[C@@H](NC(=O)[C@H](C)NC)C(C)(C)C)[C@@H]1C(=O)N[C@@H](Cc1ccc3ccccc3c1)C(=O)N[C@H](c1n[nH]c(=O)o1)Cc1ccc(cc1)OCc1cn2nn1)C(C)(C)C [Example 14]	8.6	1.3
CN[C@@H](C)C(=O)N[C@H](C(=O)N1CC[C@@H]2[C@H]1C(=O)N[C@@H](Cc1ccc3ccccc3c1)C(=O)N[C@H](C(=O)O)Cc1ccc(cc1)OCc1cn(nn1)[C@@H]1CCN(C(=O)[C@@H](NC(=O)[C@H](C)NC)C(C)(C)C)[C@@H]1C(=O)N[C@@H](Cc1ccc3ccccc3c1)C(=O)N[C@H](c1nc(=S)o[nH]1)Cc1ccc(cc1)OCc1cn2nn1)C(C)(C)C [Example 17]	3.2	0.8
CN[C@@H](C)C(=O)N[C@H](C(=O)N1CC[C@@H]2[C@H]1C(=O)N[C@@H](Cc1ccc3ccccc3c1)C(=O)N[C@H](C(=O)O)Cc1ccc(cc1)OCc1cn(nn1)[C@@H]1CCN(C(=O)[C@@H](NC(=O)[C@H](C)NC)C(C)(C)C)[C@@H]1C(=O)N[C@@H](Cc1ccc3ccccc3c1)C(=O)N[C@H](c1nc(=S)o[nH]1)Cc1ccc(cc1)OCc1cn2nn1)C(C)(C)C [Example 18]		2.2
CN[C@@H](C)C(=O)N[C@H](C(=O)N1CC[C@@H]2[C@H]1C(=O)N[C@@H](Cc1ccc3ccccc3c1)C(=O)N[C@H](C(=O)O)Cc1ccc(cc1)OCc1cn(nn1)[C@@H]1CCN(C(=O)[C@@H](NC(=O)[C@H](C)NC)C(C)(C)C)[C@@H]1C(=O)N[C@@H](Cc1ccc3ccccc3c1)C(=O)N[C@H](c1nc(=O)o[nH]1)Cc1ccc(cc1)OCc1cn2nn1)C(C)(C)C [Example 19]	2	0.4
CN[C@@H](C)C(=O)N[C@H](C(=O)N1CC[C@@H]2[C@H]1C(=O)N[C@@H](Cc1ccc3ccccc3c1)C(=O)N[C@H](C(=O)O)Cc1ccc(cc1)OCc1cn(nn1)[C@@H]1CCN(C(=O)[C@@H](NC(=O)[C@H](C)NC)C(C)(C)C)[C@@H]1C(=O)N[C@@H](Cc1ccc3ccccc3c1)C(=O)N[C@H](c1nc(=O)o[nH]1)Cc1ccc(cc1)OCc1cn2nn1)C(C)(C)C [Example 20]	10.1	2.9
